Data reported in patent publication US10689365B2, “Substituted 2-alkylimidazolylcarboxamides as pesticides” (Bayer CropScience Aktiengesellschaft, priority 2016, dated 2020).
Where two headings read alike, the source gives them in different places.

Assays:
Myzus persicae [1] = experiment: Myzus persicae - spray test (Chinese cabbage leaf discs); assay type: in vivo; conditions: Myzus persicae, foliar; application rate 500 g/ha, after 5-6 days; read-out: efficacy
Procedure: Myzus persicae—Spray Test
Solvent: 78 parts by weight of acetone • • 1.5 parts by weight of dimethylformamide
(§1) Emulsifier: alkylaryl polyglycol ether
(§2) To produce a suitable active compound preparation, 1 part by weight of active compound is dissolved using the stated parts by weight of solvent and made up with water containing an emulsifier concentration of 1000 ppm until the desired concentration is attained. To produce further test concentrations, the formulation is diluted with emulsifier-containing water.
Discs of Chinese cabbage leaves (Brassica pekinensis) infested by all stages of the green peach aphid (Myzus persicae) are sprayed with an active ingredient formulation of the desired concentration.
After 5-6 days, the efficacy in % is determined. 100% means that all the aphids have been killed; 0% means that no aphids have been killed.

Myzus persicae [2] = experiment: Myzus persicae - oral test; assay type: in vivo; conditions: Myzus persicae, po, 120 h; application rate 20 ppm, after 5 days; read-out: efficacy
Procedure: (§3) Solvent: 100 parts by weight of acetone
(§4) To produce a suitable preparation of active compound, 1 part by weight of active compound is dissolved using the specified parts by weight of solvent and made up with water until the desired concentration is attained.
(§5) 50 μl of the active compound preparation are transferred into microtitre plates and made up to a final volume of 200 μl with 150 μl of IPL41 insect medium (33%+15% sugar). Subsequently, the plates are sealed with parafilm, which a mixed population of green peach aphids (Myzus persicae) within a second microtitre plate is able to puncture and imbibe the solution through it.
After 5 days, the efficacy in % is determined. 100% means that all the aphids have been killed; 0% means that no aphids have been killed.

Myzus persicae [3] = experiment: Myzus persicae - spray test (MYZUPE), Chinese cabbage leaf discs; assay type: in vivo; conditions: foliar; for percent efficacy (aphid mortality) at 20 g/ha / Emax at 20 g/ha: 20 g of ai/ha; for percent efficacy (aphid mortality) at 100 g/ha: 100 g of ai/ha; for Emax at 20 g/ha: read-out: % efficacy
Procedure: Myzus persicae—Spray Test (MYZUPE)
Solvent: 78.0 parts by weight of acetone • • 1.5 parts by weight of dimethylformamide
as §1, §2
Discs of Chinese cabbage leaves (Brassica pekinensis) infested by all stages of the green peach aphid (Myzus persicae) are sprayed with an active compound preparation of the desired concentration.
(§6) After the desired period of time, the efficacy in % is determined. 100% means that all the aphids have been killed; 0% means that no aphids have been killed.

Myzus persicae [4] = experiment: Myzus persicae - oral test (MYZUPE O); assay type: in vivo; conditions: 120 h, 5 dat, read-out: % efficacy
Procedure: Myzus persicae—Oral Test (MYZUPE O)
as §3, §4, §5, §6

Myzus persicae [5] = experiment: Myzus persicae - spray test (MYZUPE S), bell pepper plants; assay type: in vivo; conditions: 144 h, 6 dat, read-out: % efficacy
Procedure: Myzus persicae—Spray Test (MYZUPE S)
(§7) Solvent: 14 parts by weight of dimethylformamide
as §1
To produce a suitable active compound preparation, 1 part by weight of active compound is dissolved with the specified parts by weight of solvent and made up with water containing an emulsifier concentration of 1000 ppm until the desired concentration is attained. To produce further test concentrations, the formulation is diluted with emulsifier-containing water. If the addition of ammonium salts or/and penetrants is required, these are each added in a concentration of 1000 ppm to the formulation solution.
Bell pepper plants (Capsicum annuum) severely infested with the green peach aphid (Myzus persicae) are treated by spraying with the active ingredient formulation in the desired concentration.
After the desired time, the kill in % is determined. 100% means that all the animals have been killed; 0% means that no animals have been killed.

Myzus persicae [6] = experiment: Myzus persicae - drench test (MYZUPE D), Savoy cabbage in soil; assay type: in vivo; conditions: 240 h, 10 dat, read-out: % efficacy
Procedure: Myzus persicae—Drench Test (MYZUPE D)
To produce a suitable active compound preparation, 1 part by weight of active compound is mixed with the specified amounts of solvent and emulsifier, and the concentrate is diluted with water to the desired concentration, it being necessary to include the volume of soil which is drenched in the calculation. It should be ensured that a concentration of 40 ppm of emulsifier in the soil is not exceeded. To produce further test concentrations, water is used for dilution.
Savoy cabbage (Brassica oleracea) in pots with soil and infested by all stages of the green peach aphid (Myzus persicae) is watered with an active compound preparation of the desired concentration.
as §6

Aphis gossypii = Aphis gossypii - spray test (APHIGO S), cotton plants; assay type: in vivo; conditions: 144 h, 6 dat, read-out: % efficacy
Procedure: Aphis gossypii—Spray Test (APHIGO S)
as §7, §1
To produce a suitable active compound preparation, 1 part by weight of active compound is dissolved using the stated parts by weight of solvent and made up with water containing an emulsifier concentration of 1000 ppm until the desired concentration is attained. To produce further test concentrations, the formulation is diluted with emulsifier-containing water. If the addition of ammonium salts or/and penetrants is required, these are each added in a concentration of 1000 ppm to the formulation solution.
Cotton plants (Gossypium hirsutum) heavily infested by the cotton aphid (Aphis gossypii) are sprayed with an active ingredient formulation of the desired concentration.
After the desired time, the kill in % is determined. 100% means that all the aphids have been killed; 0% means that no aphids have been killed.

[7] = log P by HPLC on reversed-phase (C18) columns, OECD Guideline 117; assay type: physicochemical; conditions: reversed-phase (C18) HPLC column
Procedure: The log P values were determined in accordance with OECD Guideline 117 (EC Directive 92/69/EEC) by HPLC (high-performance liquid chromatography) using reversed-phase (RP) columns (C18), by the following methods:
[a] The LC-MS determination in the acidic range was carried out at pH 2.7 with 0.1% aqueous formic acid and acetonitrile (contains 0.1% formic acid) as mobile phases; linear gradient from 10% acetonitrile to 95% acetonitrile.
[b] LC-MS determination in the neutral range was carried out at pH 7.8 with 0.001 molar aqueous ammonium hydrogencarbonate solution and acetonitrile as mobile phases; linear gradient from 10% acetonitrile to 95% acetonitrile.

[8] = acidic range, pH 2.7, 0.1% aqueous formic acid/acetonitrile, read-out: logP[a]
[9] = neutral range, pH 7.8, aqueous ammonium hydrogencarbonate/acetonitrile, read-out: logP[n]

SMILES	pest or weed control at 500 g/ha (Myzus persicae [1])	pest or weed control at 20 ppm (Myzus persicae [2])	percent efficacy (aphid mortality) at 20 g/ha (Myzus persicae [3]; 120 h, 5 dat)	percent efficacy (aphid mortality) at 100 g/ha (Myzus persicae [3]; 120 h, 5 dat)	Emax at 4 ppm (Myzus persicae [4])	Emax at 0.16 ppm (Myzus persicae [5])	Emax at 0.16 ppm (Myzus persicae [6])	Emax at 0.8 ppm (Aphis gossypii)	Emax at 4 ppm (Aphis gossypii; 4 ppm)	chromatographic logP [7, 8]	chromatographic logP [7, 9]	Emax at 20 g/ha (Myzus persicae [3]; 120 h, 5 dat)	percent efficacy (aphid mortality) at 20 g/ha (Myzus persicae [3]; 96 h, 4 dat)	percent efficacy (aphid mortality) at 100 g/ha (Myzus persicae [3]; 96 h, 4 dat)	percent kill (mortality) of aphids at a fixed dose at 0.8 ppm (Aphis gossypii)	percent kill (mortality) of aphids at a fixed dose at 4 ppm (Aphis gossypii; 4 ppm)
CSCc1ncc(C(=O)N(C)c2cccnc2)n1C [Example I-1-26]	100%	100%	90%	90%	100%	95%	90%	30%	98%	-0.04	0.98					
CCS(=O)(=O)Cc1ncc(C(=O)N(C)c2cccnc2)n1C [Example I-1-28]	100%	100%		90%	100%	95%	95%	98%	100%	0.35	0.65	100%				
CC(C)SCc1ncc(C(=O)N(C)c2cccnc2)n1C [Example I-1-29, 2-[(Isopropylsulphanyl)methyl]-N,1-dimethyl-N-(pyridin-3-yl)-1H-imidazole-5-carboxamide]	90%	100%		90%	100%	99%	98%	98%	100%	0.76	1.5					
CC(C)S(=O)(=O)Cc1ncc(C(=O)N(C)c2cccnc2)n1C [Example I-1-30, 2-[(Isopropylsulphonyl)methyl]-N,1-dimethyl-N-(pyridin-3-yl)-1H-imidazole-5-carboxamide]	90%	100%	90%	90%	100%	98%	98%	100%	100%	0.56	0.88					
CC(C)CSCc1ncc(C(=O)N(C)c2cccnc2)n1C [Example I-1-31, 2-[(isobutylsulphanyl)methyl]-N,1-dimethyl-N-(pyridin-3-yl)-1H-imidazole-5-carboxamide]	100%	100%	90%	90%	100%	99%	95%	100%	100%	1.18	1.84					
CN(C(=O)c1cnc(CSC(C)(C)C)n1C)c1cccnc1 [Example I-1-33]	100%	100%		90%	100%		90%		75%	0.97	1.67	100%				
CN(C(=O)c1cnc(Cn2cccn2)n1C)c1cccnc1 [Example I-1-43, N,1-Dimethyl-2-(1H-pyrazol-1-ylmethyl)-N-(pyridin-3-yl)-1H-imidazole-5-carboxamide]	100%	100%			100%		70%	30%	98%	0.35	0.81		90%	90%		
CN(C(=O)c1cnc(Cn2ccc(C(F)(F)F)n2)n1C)c1cccnc1 [Example I-1-44]	100%	100%			100%		90%	55%	99%	1.46	1.64		90%	90%		
CN(C(=O)c1cnc(Cn2cc(C(F)(F)F)cn2)n1C)c1cccnc1 [Example I-1-45]	90%	100%			100%		80%			1.34	1.59			100%	98%	100%
Cc1ncc(C(=O)N(C)c2cccnc2)n1C [reference compound]						0%	30%		40%						0%	
CCc1ncc(C(=O)N(C)c2cccnc2)n1C [reference compound]						0%	0%		45%						0%	
